Each structure is given as a SMILES string.

The target of this assay is T1, TrkA(h) (Homo sapiens, UniProt P04629).
T1 construct: purchased Millipore (KinaseProfiler service)
T1 sequence (P04629 33-796): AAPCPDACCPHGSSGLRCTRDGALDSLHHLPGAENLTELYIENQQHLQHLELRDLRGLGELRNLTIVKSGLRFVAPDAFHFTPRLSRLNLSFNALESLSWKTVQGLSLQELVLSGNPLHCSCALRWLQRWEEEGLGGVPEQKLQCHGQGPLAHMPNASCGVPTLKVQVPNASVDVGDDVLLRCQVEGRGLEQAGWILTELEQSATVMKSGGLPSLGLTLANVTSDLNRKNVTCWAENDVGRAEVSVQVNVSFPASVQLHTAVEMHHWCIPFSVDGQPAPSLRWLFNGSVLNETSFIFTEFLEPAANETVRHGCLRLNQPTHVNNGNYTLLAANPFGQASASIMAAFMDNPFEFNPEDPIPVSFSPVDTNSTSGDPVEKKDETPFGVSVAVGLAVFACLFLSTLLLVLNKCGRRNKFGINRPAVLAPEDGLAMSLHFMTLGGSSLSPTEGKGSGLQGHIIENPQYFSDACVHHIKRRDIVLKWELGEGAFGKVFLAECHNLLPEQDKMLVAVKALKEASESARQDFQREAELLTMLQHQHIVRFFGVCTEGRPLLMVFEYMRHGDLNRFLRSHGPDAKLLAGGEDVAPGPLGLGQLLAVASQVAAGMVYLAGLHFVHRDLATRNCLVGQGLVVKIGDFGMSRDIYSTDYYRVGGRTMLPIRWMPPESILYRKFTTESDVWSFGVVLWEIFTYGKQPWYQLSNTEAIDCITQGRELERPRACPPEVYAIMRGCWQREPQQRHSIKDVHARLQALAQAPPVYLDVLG
The assay is described as follows: KinaseProfiler (Millipore) radiometric kinase inhibition assay. To be noted: compound concentration 1 μM. Type of assay: biochemical. The method, then: The KinaseProfiler™ Service Assay Protocols (Millipore) were used to test the kinase inhibiting activity of novel compounds from this invention. To do this, the buffer composition was as follows: 20 mM MOPS, 1 mM EDTA, 0.01% Brij-35, 5% Glycerol, 0.1% β-mercaptoethanol, 1 mg/mL BSA. Test compounds were initially dissolved in DMSO at the desired concentration, then serially diluted into the kinase assay buffer. In a final reaction volume of 25 μL, TrkA(h) (5-10 mU) is incubated with 8 mM MOPS pH 7.0, 0.2 mM EDTA, 200 μM LRRASLG (Kemptide), 10 mM MgAcetate and [γ^33P-ATP]. The reaction was initiated by the addition of the MgATP mix. After incubation for 40 minute at room temperature, the reaction was stopped by addition of 5 μL of a 3% phosphoric acid solution. 10 μL of the reaction was then spotted onto a P30 filtermat and washed three times for 5 minutes in 50 mM phosphoric acid and once in methanol prior to drying and scintillation counting. Wells containing substrate but no kinase and wells containing a phosphopeptide control were used to set 0% and 100% phosphorylation value, respectively.
In general, inhibition refers to the drop in the measured response relative to a control, in per cent. As for `Fc1ccc(C2CCCN2c2cc(Nc3cc(C4CC4)[nH]n3)ncn2)c(F)c1` (stereo not drawn) [Example 43], the inhibition at 1 µM is 105%.

Consider `COc1ccccc1C1CCCN1c1cc(Nc2cc(C3CC3)[nH]n2)ncn1` (stereo not drawn) [Example 37], for which the inhibition at 1 µM was determined as 101%.

`CN1CCN(c2cc(Nc3cc(C4CC4)[nH]n3)ncn2)C(c2ccccc2)C1` (stereo not drawn) [Example 65]: the inhibition at 1 µM was found to be 79%.

In the case of `Fc1ccc(C2CCCN2c2ncnc(Nc3cc(C4CC4)[nH]n3)n2)c(F)c1` (stereo not drawn) [Example 74], the inhibition at 1 µM turned out to be 100%.

As to `Cc1ccc(C2CCCN2c2cc(Nc3cc(C4CC4)[nH]n3)ncn2)cc1` (stereo not drawn) [Example 25], the inhibition at 1 µM worked out at 100%.

In the case of `Fc1ccc(Nc2cc(N3CCCC3c3ccc(F)cc3)ncn2)cc1` (stereo not drawn) [Example 57], the inhibition at 1 µM amounted to 44%.

For the compound `C/C=C/c1cc(Nc2cc(N3CCCC3c3ccc(F)cc3)ncn2)n[nH]1` (stereo not drawn) [Example 50], the inhibition at 1 µM was 99%.

Regarding `Fc1ccccc1C1CCCN1c1cc(Nc2cc(C3CC3)[nH]n2)ncn1` (stereo not drawn) [Example 38], the inhibition at 1 µM turned out to be 95%.

Turning to `c1ccc(C2CCCN2c2cc(Nc3cc(C4CC4)[nH]n3)ncn2)cc1` (stereo not drawn) [Example 24], the inhibition at 1 µM stood at 101%.

As to `Cc1cccc(C2CCCN2c2cc(Nc3cc(C4CC4)[nH]n3)ncn2)c1` (stereo not drawn) [Example 30], the inhibition at 1 µM came out at 97%.

On to `Fc1ccc(C2CCN2c2cc(Nc3cc(C4CC4)[nH]n3)ncn2)cc1` (stereo not drawn) [Example 62], for which the inhibition at 1 µM worked out at 105%.

Take `CN(C)c1cccc(C2CCCN2c2cc(Nc3cc(C4CC4)[nH]n3)ncn2)c1` (stereo not drawn) [Example 41]: the inhibition at 1 µM was determined as 101%.

On to `Clc1ccccc1C1CCCN1c1cc(Nc2cc(C3CCCO3)[nH]n2)ncn1` (stereo not drawn) [Example 54], for which the inhibition at 1 µM came to 70%.

For the compound `CC(C)(C)OC(=O)N1CCC(c2cc(Nc3cc(N4CCCC4c4ccccc4Cl)ncn3)n[nH]2)CC1` (stereo not drawn) [Example 55], the inhibition at 1 µM is 6%.

In the case of `Fc1ccc(C2CCCN2c2cc(Nc3cc(C4CCC4)[nH]n3)ncn2)cc1` (stereo not drawn) [Example 49], the inhibition at 1 µM was determined as 101%.

Regarding `Clc1ccc(C2CCCN2c2cc(Nc3cc(C4CC4)[nH]n3)ncn2)cc1Cl` (stereo not drawn) [Example 46], the inhibition at 1 µM came out at 100%.

`CN(C)c1ccc(C2CCCN2c2cc(Nc3cc(C4CC4)[nH]n3)ncn2)cc1` (stereo not drawn) [Example 40]: the inhibition at 1 µM is 102%.

For `Clc1ccccc1C1CCCN1c1cc(Nc2cc(C3CC3)[nH]n2)ncn1` (stereo not drawn) [Example 39], the inhibition at 1 µM turned out to be 97%.

As for `OC1CC(c2cc(F)ccc2F)N(c2cc(Nc3cc(C4CC4)[nH]n3)ncn2)C1` (stereo not drawn) [Example 45], the inhibition at 1 µM amounted to 96%.

Consider `CN1CCN(c2ccc(Nc3cc(N4CCCC4c4ccc(F)cc4)ncn3)nc2)CC1` (stereo not drawn) [Example 61], for which the inhibition at 1 µM was -12%.

Take `COc1ccc(C2CCCN2c2cc(Nc3cc(C4CC4)[nH]n3)ncn2)cc1` (stereo not drawn) [Example 27]: the inhibition at 1 µM came to 101%.

With `CC(C)n1cc(Nc2cc(N3CCCC3c3ccc(F)cc3)ncn2)cn1` (stereo not drawn) [Example 59], the inhibition at 1 µM is 0%.

As to `Fc1ccc(C2CCCN2c2ncnc(Nc3cc(C4CC4)[nH]n3)n2)cc1` (stereo not drawn) [Example 73], the inhibition at 1 µM amounted to 100%.

For the compound `c1ccc(C2COCCN2c2cc(Nc3cc(C4CC4)[nH]n3)ncn2)cc1` (stereo not drawn) [Example 64], the inhibition at 1 µM is 85%.

In the case of `N#Cc1cnc(Nc2cc(N3CCCC3c3ccc(F)cc3)ncn2)s1` (stereo not drawn) [Example 58], the inhibition at 1 µM was 7%.

For the compound `Clc1ccccc1C1CCCN1c1cc(Nc2cc(-c3ccco3)[nH]n2)ncn1` (stereo not drawn) [Example 56], the inhibition at 1 µM amounted to 47%.

Take `Fc1cccc(F)c1C1CCCN1c1cc(Nc2cc(C3CC3)[nH]n2)ncn1` (stereo not drawn) [Example 42]: the inhibition at 1 µM worked out at 101%.

For `Fc1cccc(C2CCCN2c2cc(Nc3cc(C4CC4)[nH]n3)ncn2)c1` (stereo not drawn) [Example 33], the inhibition at 1 µM was found to be 103%.

With `Cc1ccc(C2CCCN2c2ncnc(Nc3cc(C4CC4)[nH]n3)c2C#N)cc1` (stereo not drawn) [Example 47], the inhibition at 1 µM was -6%.

As to `Clc1ccc(C2CCCN2c2cc(Nc3cc(C4CC4)[nH]n3)ncn2)cc1` (stereo not drawn) [Example 29], the inhibition at 1 µM worked out at 105%.

With `CC(C)Oc1cc(Nc2cc(N3CCCC3c3ccccc3Cl)ncn2)n[nH]1` (stereo not drawn) [Example 53], the inhibition at 1 µM is 96%.

As to `Fc1ccc(F)c(C2CCCN2c2cc(Nc3cc(C4CC4)[nH]n3)ncn2)c1` (stereo not drawn) [Example 44], the inhibition at 1 µM came out at 103%.

In the case of `Fc1ccc(C2CCCN2c2cc(Nc3cc(C4CC4)[nH]n3)ncn2)cc1` (stereo not drawn) [Example 28], the inhibition at 1 µM came out at 103%.

As to `FC(F)(F)c1ccc(C2CCCN2c2cc(Nc3cc(C4CC4)[nH]n3)ncn2)cc1` (stereo not drawn) [Example 26], the inhibition at 1 µM was 98%.

Turning to `Nc1nc(Nc2cc(C3CC3)[nH]n2)cc(N2CCCC2c2ccc(F)cc2)n1` (stereo not drawn) [Example 71], the inhibition at 1 µM stood at 100%.

As for `Fc1ccc(C2CCCN2c2cc(Nc3cc(-c4ccco4)[nH]n3)ncn2)cc1` (stereo not drawn) [Example 51], the inhibition at 1 µM amounted to 79%.

As for `COc1cccc(C2CCCN2c2cc(Nc3cc(C4CC4)[nH]n3)ncn2)c1` (stereo not drawn) [Example 32], the inhibition at 1 µM was determined as 91%.

Take `Cc1ccccc1C1CCCN1c1cc(Nc2cc(C3CC3)[nH]n2)ncn1` (stereo not drawn) [Example 35]: the inhibition at 1 µM turned out to be 92%.

As to `Fc1ccc(C2CCCN2c2cc(Nc3n[nH]c4ccccc34)ncn2)cc1` (stereo not drawn) [Example 60], the inhibition at 1 µM was determined as 79%.

`Clc1cccc(C2CCCN2c2cc(Nc3cc(C4CC4)[nH]n3)ncn2)c1` (stereo not drawn) [Example 34]: the inhibition at 1 µM amounted to 101%.

For `c1ccc(C2CCCCN2c2cc(Nc3cc(C4CC4)[nH]n3)ncn2)cc1` (stereo not drawn) [Example 63], the inhibition at 1 µM was 99%.

As to `Fc1ccc(C2CCCN2c2cc(Nc3cc(-c4ccccn4)[nH]n3)ncn2)cc1` (stereo not drawn) [Example 52], the inhibition at 1 µM is 30%.

As to `FC(F)(F)c1cccc(C2CCCN2c2cc(Nc3cc(C4CC4)[nH]n3)ncn2)c1` (stereo not drawn) [Example 31], the inhibition at 1 µM was 61%.

As for `CCCc1cc(Nc2cc(N3CCCC3c3ccc(Cl)cc3)ncn2)n[nH]1` (stereo not drawn) [Example 67], the inhibition at 1 µM is 99%.

Regarding `Clc1ccc(C2CCCN2c2ncnc(Nc3cc(C4CC4)[nH]n3)n2)cc1` (stereo not drawn) [Example 75], the inhibition at 1 µM came out at 100%.

On to `Cc1cc(Nc2cc(N3CCCC3c3ccc(Cl)cc3)ncn2)n[nH]1` (stereo not drawn) [Example 66], for which the inhibition at 1 µM came out at 95%.

Take `FC(F)(F)c1ccccc1C1CCCN1c1cc(Nc2cc(C3CC3)[nH]n2)ncn1` (stereo not drawn) [Example 36]: the inhibition at 1 µM is 93%.

Take `Fc1ccc(C2CCCN2c2ncnc(Nc3cc(C4CC4)[nH]n3)c2F)cc1` (stereo not drawn) [Example 48]: the inhibition at 1 µM was 51%.

The values are drawn from US10738033B2, “Trk inhibition” (NantBio, Inc., priority 2017, dated 2020).
